Experiment in all cases: DTP human tumour cell line panel, 48 h
The test system of assay [1] is 786-0.
Assay [2] relates to LXFL 529.
Assay [3] has as its system BT-549.
In assay [4] the test system is DU-145.
Assay [5] deals with Hs-578T.
Assay [6] deals with MDA-MB-231.
Assay [7] relates to MDA-MB-435.
For assay [8], the system named is PC-3.

This is an account of results in ChEMBL document CHEMBL1201862, “PubChem BioAssay data set” (2004).

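In this assay, cells in 96-well plates receive the compound at five concentrations for 48 hours. Endpoints are linearly interpolated between the surrounding concentrations. GI50 marks 50% less growth.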 The source made the active and inactive calls. Cut-off read from the data, not from the text of the source: active = GI50 up to about 1.1 µM and inactive = higher. Some results are limits rather than exact numbers.

The term GI50 denotes the concentration that inhibits growth by half.

Take `Cc1cc(C)nc(NS(=O)(=O)c2ccc(NC(=O)c3cccn4c(=O)c5ccccc5nc34)cc2)n1`: the values for the GI50 in assay [1] and in assay [2] were > 100 µM (inactive) and 29.3 µM (inactive), respectively.

Regarding `CCCCN1CN2C(=O)C(C(=O)OCC)C(=O)c3sc4nc(SC)nc1c4c32` (configuration not stated), the GI50 in assay [3] is 16.6 µM (inactive); in assay [4] it was 19 µM (inactive); in assay [5] it was < 0.01 µM (active); in assay [6], 17.9 µM (inactive); in assay [7], 18.2 µM (inactive); in assay [8] it was 19.2 µM (inactive).

Regarding `CCOC(=O)C1=C(C)N2CCCOC2(C)C(C(=O)OC)C1c1cccc([N+](=O)[O-])c1` (configuration not stated), in assay [2], the GI50 was 45.7 µM (inactive).

Regarding `CCOC(=O)c1ccc(C)c(/N=N/N(C)C)c1`, the GI50 in assay [1] is > 100 µM (inactive).

As for `COc1cccc(N2C(Cl)C(=O)C2c2c[nH]c3ccccc23)c1` (configuration not stated), the GI50 in assay [2] was > 100 µM (inactive).

Regarding `COc1ccc(CN/C=N/C(C#N)=C(\N)C#N)cc1OC`, the GI50 in assay [1] was > 100 µM (inactive); in assay [3], 72.3 µM (inactive); in assay [4], > 100 µM (inactive); in assay [5], > 100 µM (inactive); in assay [6], > 100 µM (inactive); in assay [7] it was > 100 µM (inactive). Also, the GI50 in assay [8] was > 100 µM (inactive).

Turning to `Cc1ccc(S(=O)(=O)NC(=N)N(C)N=O)cc1`, the GI50 in assay [1], in assay [3], in assay [4], in assay [5], in assay [6] and in assay [7] was > 100 µM (inactive) throughout. Besides, in assay [8], the GI50 was > 100 µM (inactive).

For the molecule `Cc1cccc2ns[s+]c12`, in assay [2], the GI50 was 37.8 µM (inactive).

On to `CCCCS(=N)(=O)CC[C@H](N)C(=O)O` (some centres not stated) [BUTHIONINE SULFOXIME], for which the GI50 in assay [3] was > 5000 µM (inactive); in assay [4] it was > 5000 µM (inactive); in assay [5] it was > 2810 µM (inactive); in assay [6], > 5000 µM (inactive); in assay [7] it was > 5000 µM (inactive); in assay [8], > 5000 µM (inactive).
